Data: article PMC10408569, “Recruitment of hexahydroquinoline as anticancer scaffold targeting inhibition of wild and mutants EGFR (EGFR^WT, EGFR^T790M, and EGFR^L858R)” (Journal of Enzyme Inhibition and Medicinal Chemistry, 2023)

What was measured:
HT29 = experiment: NCI-60 anticancer screening (SRB); type: cell-based; settings: Homo sapiens, HT-29; HT29, colon cancer; one dose 10 μM; read-out: Growth Inhibition Percentage (GI %)
M14 = experiment: NCI-60 anticancer screening (SRB); type: cell-based; settings: Homo sapiens; M14, melanoma; one dose 10 μM; read-out: Growth Inhibition Percentage (GI %)
TK-10 = experiment: NCI-60 anticancer screening (SRB); type: cell-based; settings: Homo sapiens; TK-10, renal cancer; one dose 10 μM; read-out: Growth Inhibition Percentage (GI %)
BT-549 = experiment: NCI-60 anticancer screening (SRB); type: cell-based; settings: Homo sapiens; BT-549, breast cancer; one dose 10 μM; read-out: Growth Inhibition Percentage (GI %)
CAKI-1 = experiment: NCI-60 anticancer screening (SRB); type: cell-based; settings: Homo sapiens; CAKI-1, renal cancer; one dose 10 μM; read-out: Growth Inhibition Percentage (GI %)
OVCAR-4 = experiment: NCI-60 anticancer screening (SRB); type: cell-based; settings: Homo sapiens; OVCAR-4, ovarian cancer; one dose 10 μM; read-out: Growth Inhibition Percentage (GI %)
HS 578T = experiment: NCI-60 anticancer screening (SRB); type: cell-based; settings: Homo sapiens; HS 578T, breast cancer; one dose 10 μM; read-out: Growth Inhibition Percentage (GI %)
UACC-62 = experiment: NCI-60 anticancer screening (SRB); type: cell-based; settings: Homo sapiens; UACC-62, melanoma; one dose 10 μM; read-out: Growth Inhibition Percentage (GI %)
RXF 393 = experiment: NCI-60 anticancer screening (SRB); type: cell-based; settings: Homo sapiens; RXF 393, renal cancer; one dose 10 μM; read-out: Growth Inhibition Percentage (GI %)
NCI-H460 = experiment: NCI-60 anticancer screening (SRB); type: cell-based; settings: Homo sapiens; NCI-H460, NSC lung cancer; one dose 10 μM; read-out: Growth Inhibition Percentage (GI %)
SN 12C = experiment: NCI-60 anticancer screening (SRB); type: cell-based; settings: Homo sapiens, SN12C; SN 12C, renal cancer; one dose 10 μM; read-out: Growth Inhibition Percentage (GI %)
SK-MEL-2 = experiment: NCI-60 anticancer screening (SRB); type: cell-based; settings: Homo sapiens; SK-MEL-2, melanoma; one dose 10 μM; read-out: Growth Inhibition Percentage (GI %)
MCF7 = experiment: NCI-60 anticancer screening (SRB); type: cell-based; settings: Homo sapiens; MCF7, breast cancer; one dose 10 μM; read-out: Growth Inhibition Percentage (GI %)
NCI-H522 = experiment: NCI-60 anticancer screening (SRB); type: cell-based; settings: Homo sapiens; NCI-H522, NSC lung cancer; one dose 10 μM; read-out: Growth Inhibition Percentage (GI %)
KM 12 = experiment: NCI-60 anticancer screening (SRB); type: cell-based; settings: Homo sapiens, KM12; KM 12, colon cancer; one dose 10 μM; read-out: Growth Inhibition Percentage (GI %)
HOP-62 = experiment: NCI-60 anticancer screening (SRB); type: cell-based; settings: Homo sapiens; HOP-62, NSC lung cancer; one dose 10 μM; read-out: Growth Inhibition Percentage (GI %)
OVCAR-3 = experiment: NCI-60 anticancer screening (SRB); type: cell-based; settings: Homo sapiens; OVCAR-3, ovarian cancer; one dose 10 μM; read-out: Growth Inhibition Percentage (GI %)
MOLT-4 = experiment: NCI-60 anticancer screening (SRB); type: cell-based; settings: Homo sapiens; MOLT-4, leukemia; one dose 10 μM; read-out: Growth Inhibition Percentage (GI %)
NCI-H322M = experiment: NCI-60 anticancer screening (SRB); type: cell-based; settings: Homo sapiens, NSC lung cancer, one dose 10 μM, read-out: Growth Inhibition Percentage (GI %)
NCI 60 cancer cell lines = experiment: NCI-60 anticancer screening (SRB), whole panel; type: cell-based, human; settings: mean across the NCI-60 panel; one dose 10 μM
HCC-2998 = experiment: NCI-60 anticancer screening (SRB); type: cell-based; settings: Homo sapiens; HCC-2998, colon cancer; one dose 10 μM; read-out: Growth Inhibition Percentage (GI %)
SW-620 = experiment: NCI-60 anticancer screening (SRB); type: cell-based; settings: Homo sapiens; SW-620, colon cancer; one dose 10 μM; read-out: Growth Inhibition Percentage (GI %)
T-47D = experiment: NCI-60 anticancer screening (SRB); type: cell-based; settings: Homo sapiens, T47D, breast cancer, one dose 10 μM, read-out: Growth Inhibition Percentage (GI %)
MDA-MB-231 = experiment: NCI-60 anticancer screening (SRB); type: cell-based; settings: Homo sapiens; MDA-MB-231, breast cancer; one dose 10 μM; read-out: Growth Inhibition Percentage (GI %)
NCI/ADR-RES = experiment: NCI-60 anticancer screening (SRB); type: cell-based; settings: Homo sapiens, ovarian cancer, one dose 10 μM, read-out: Growth Inhibition Percentage (GI %)
786-0 = experiment: NCI-60 anticancer screening (SRB); type: cell-based; settings: Homo sapiens; 786-0, renal cancer; one dose 10 μM; read-out: Growth Inhibition Percentage (GI %)
HL-60(TB) = experiment: NCI-60 anticancer screening (SRB); type: cell-based; settings: Homo sapiens, leukemia, one dose 10 μM, read-out: Growth Inhibition Percentage (GI %)
COLO 205 = experiment: NCI-60 anticancer screening (SRB); type: cell-based; settings: Homo sapiens; COLO 205, colon cancer; one dose 10 μM; read-out: Growth Inhibition Percentage (GI %)
LOX IMVI = experiment: NCI-60 anticancer screening (SRB); type: cell-based; settings: Homo sapiens, melanoma, one dose 10 μM, read-out: Growth Inhibition Percentage (GI %)
UO-31 = experiment: NCI-60 anticancer screening (SRB); type: cell-based; settings: Homo sapiens; UO-31, renal cancer; one dose 10 μM; read-out: Growth Inhibition Percentage (GI %)
SK-MEL-5 = experiment: NCI-60 anticancer screening (SRB); type: cell-based; settings: Homo sapiens; SK-MEL-5, melanoma; one dose 10 μM; read-out: Growth Inhibition Percentage (GI %)
A498 = experiment: NCI-60 anticancer screening (SRB); type: cell-based; settings: Homo sapiens; A498, renal cancer; one dose 10 μM; read-out: Growth Inhibition Percentage (GI %)

SMILES	inhibition at 10 µM (HT29) [%]	inhibition at 10 µM (M14) [%]	inhibition at 10 µM (TK-10) [%]	inhibition at 10 µM (BT-549) [%]	melting point [°C]	inhibition at 10 µM (CAKI-1) [%]	inhibition at 10 µM (OVCAR-4) [%]	inhibition at 10 µM (HS 578T) [%]	inhibition at 10 µM (UACC-62) [%]	inhibition at 10 µM (RXF 393) [%]	inhibition at 10 µM (NCI-H460) [%]	inhibition at 10 µM (SN 12C) [%]	inhibition at 10 µM (SK-MEL-2) [%]	inhibition at 10 µM (MCF7) [%]	inhibition at 10 µM (NCI-H522) [%]	inhibition at 10 µM (KM 12) [%]	inhibition at 10 µM (HOP-62) [%]	inhibition at 10 µM (OVCAR-3) [%]	inhibition at 10 µM (MOLT-4) [%]	inhibition at 10 µM (NCI-H322M) [%]	further results
CCOC(=O)C1=C(N)N(c2ccc(Cl)cc2)C2=C(C(=O)CC(C)(C)C2)C1c1ccccc1Br (racemic) [6f, (±)-Ethyl 2-amino-4–(2-bromophenyl)-1–(4-chlorophenyl)-7,7-dimethyl-5-oxo-1,4,5,6,7,8-hexahydroquinoline-3-carboxylate]	44	24	22	27	210 to 212	32	25	< 10	36	< 10	43	13	< 10	47	43	40	< 10	31	< 10	< 10	GI % mean (NCI 60 cancer cell lines): 24%; inhibition at 10 µM (HCC-2998): < 10%; inhibition at 10 µM (SW-620): 38%; inhibition at 10 µM (T-47D): 49%; inhibition at 10 µM (MDA-MB-231): 15%; inhibition at 10 µM (NCI/ADR-RES): 14%; inhibition at 10 µM (786-0): 12%; inhibition at 10 µM (HL-60(TB)): 68%; inhibition at 10 µM (COLO 205): 45%; inhibition at 10 µM (LOX IMVI): < 10%; inhibition at 10 µM (UO-31): 40%; inhibition at 10 µM (SK-MEL-5): 79%; inhibition at 10 µM (A498): < 10%
CCOC(=O)C1=C(N)N(c2ccccc2)C2=C(C(=O)CC(C)(C)C2)C1c1cccc(Cl)c1Cl (racemic) [10a, (±)-Ethyl 2-amino-4–(2,3-dichlorophenyl)-7,7-dimethyl-5-oxo-1-phenyl-1,4,5,6,7,8-hexahydroquinoline-3-carboxylate]	27	12	< 10	31	235 to 237	53	34	< 10	44	47	39	37	41	40	25	23	59	13	60	22	GI % mean (NCI 60 cancer cell lines): 35%; inhibition at 10 µM (HCC-2998): 13%; inhibition at 10 µM (SW-620): < 10%; inhibition at 10 µM (T-47D): 28%; inhibition at 10 µM (MDA-MB-231): 40%; inhibition at 10 µM (NCI/ADR-RES): 49%; inhibition at 10 µM (786-0): 42%; inhibition at 10 µM (HL-60(TB)): 54%; inhibition at 10 µM (COLO 205): 19%; inhibition at 10 µM (LOX IMVI): 22%; inhibition at 10 µM (UO-31): 25%; inhibition at 10 µM (SK-MEL-5): 22%; inhibition at 10 µM (A498): < 10%
